What was measured:
[1] = type: physicochemical; details: buffer, 1 month, 0.1 %, pH 8.8
Procedure: Solutions of isothermal amplification buffers at pH 8.8 containing 0.1% of DS2, DS13, or DS17 were kept at 25° C. and analyzed over time using HPLC. It was observed that 95%-100% of the surfactant remained after one month (FIG. 5A) and therefore DSs are stable in pH 8.8 amplification buffer when stored in ambient conditions.

[2] = system: SARS-COV-2 target template; experiment: SARS-COV-2 LAMP assay; type: biochemical; details: 0.0075% in LAMP MasterMix
[3] = system: FluB target RNA sequence; experiment: FluB LAMP assay, time to positive; type: biochemical; details: for compatibility with FluB assay: presence of nasal matrix
Procedure: As the surfactant concentration approaches its critical micelle concentration (CMC), detrimental impact is observed on LAMP performance.
It was determined that DS2 is compatible with FluB assay in the presence of nasal matrix at 0.015%.

[4] = CMC determination by dynamic light scattering; type: physicochemical
Procedure: Average micelle radius data was collected on a DynaPro NanoStar Dynamic Light Scattering Detector. To each disposable cuvette was added 5 μL of the specified solution of DS1, DS2, or DS13 in water (T=25° C., n=10).

[5] = system: Ex2B target template; experiment: Ex2B LAMP assay; details: 0.0075% in LAMP MasterMix
Procedure: DS2 was added at 0%, 0.015%, 0.0575%, and 0.1% to the LAMP MasterMix, or LAMP buffer, containing target-specific primers, dNTPs, DNA polymerase, reverse transcriptase, intercalating fluorescent dye, and the target RNA sequence. This reaction mixture was incubated at 62° C. for 50 minutes and the increase in fluorescence was assessed to determine the time to positivity.
DS2, DS13, and DS17 were added at 0.0075% to the LAMP MasterMix using the above procedure with Ex2B target template (FIG. 4B).

[6] = system: MS2 template; experiment: Lyophilized MS2 LAMP chemistry, time to positive; type: biochemical; details: 0%, 0.03% or 0.06%; template 0.12 cp/μL and 0.06 cp/μL
[7] = 2 months

Row | SMILES | surfactant remaining [1] | compatibility with SARS-COV-2 assay [2] | compatibility with FluB assay ([3]; 0.0075% in LAMP MasterMix) | compatibility with FluB assay ([3]; 0.015% in LAMP buffer) | impact on LAMP performance at the CMC ([3]; 0.1% DS2, FluB LAMP, nasal matrix, 62° C. for 50 minutes) | impact on assay specificity below the CMC ([3]; concentrations below the CMC) | critical micelle concentration (CMC) [4] | compatibility with Ex2B assay [5] | impact on time to positive (Tp, min) [6] | remaining [7]
1 | CCCCCCCCCCC(=O)N(CCOCCOCCOC)CCOCCOCCOC [DS2] | 95%-100 | compatible | compatible | compatible | delay in the contrived positive amplification | no detrimental impact | 0.1% | compatible | – | –
2 | CCCCCCCCCCC(=O)N(CCOCCOCCOCCOC)CCOCCOCCOCCOC [DS13] | 95%-100 | compatible | compatible | – | – | – | – | compatible | no detrimental impact | 97.1±1.5%
3 | CCCCCCCCCCC(=O)NCCOCCOCCOCCOCCOCCOC [DS17] | 95%-100 | compatible | compatible | – | – | – | – | compatible | – | –

Source: patent US20240360076A1, “NONIONIC SURFACTANTS” (priority 2023, published 2024)
